Test results as given in patent publication US20260158194A1, “DRUG COATED BALLOON” (ARTERIUS LIMITED, priority 2021, published 2026).

How the values were obtained:
[1] = Simulated tracking and deployment (ASTM F3320-18) into hydrogel mock-vessel (Examples 14-17); type: physicochemical; details: single drug
Procedure: In this example, a hydrogel was used to mimic the arterial tissue wall to assess the drug release profile and simulate the tracking and deployment process.
Based on the process described in ASTM F3320-18, folded balloons were pushed through a 37° C. heated anatomical model filled with PBS for 30 seconds. At the end of the track, balloons were then inflated to nominal pressure inside the hydrogel for 1 minute. The PBS inside the track was collected and replaced, and the balloon withdrawn back through the track. The PBS in the track was collected, and the coated balloon was inflated to nominal pressure for a final drug release in methanol for 5 minutes. The drug concentration in the two PBS samples and methanol sample was measured by UV-VIS. This was used to calculate the drug dose delivered to the hydrogel site.
In this example, the drug release profiles of balloons dip coated with methanol solutions containing 20% excipient Pluronic F108 and 8% of either dipyridamole or sirolimus were assessed. After coating, the balloons were dried and folded.
In this example, balloons were spray coated with a methanol solution containing 1% excipient Pluronic F108, and 2% of either dipyridamole or sirolimus. After drying and folding the balloons were sterilised.

[2] = Drug release profile of spray-coated balloons, PBS then methanol elution, UV (Example 4); type: physicochemical
Procedure: The technique of spray coating was introduced using a 5% solution of high molecular weight polymer PEG-PPO-PEG (Mn=14,600) in methanol. This spray coating method was used to add multiple layers of coating and ensured the correct area of the balloon was coated in a more precise fashion.
In this example, a set of experiments was conducted to assess the drug release profiles of Sirolimus and Dipyridamole. The samples were spray coated with their coating solutions with nitrogen gas at 1 bar, and 20 rotations were done (10 clockwise and 10 anticlockwise). The separation from the balloon and spray nozzle was approximately 15 cm.
The drug release profiles of both Dipyridamole and Sirolimus were determined using an excipient polymer PEG-PPO-PEG (Mn=14,600) with organic carrier solvent methanol. The coating solution quantities can be found in Table 3.
The resulting coated balloons were eluted in 8 mL of PBS for 3 minutes, before being eluted into 8 mL of methanol for 5 minutes, for full release of the coating.

In the case of `OCCN(CCO)c1nc(N2CCCCC2)c2nc(N(CCO)CCO)nc(N3CCCCC3)c2n1` [dipyridamole], the “drug lost when tracking to the site” value ([1]; dip coated, 20% Pluronic F108 and 8% drug) is reported as “considerably less dipyridamole than sirolimus was lost”, the “loaded drug released during deployment to the hydrogel target site” value ([1]; spray coated, 1% Pluronic F108 and 2% drug, sterilised) is reported as 71.1% and the “Post-PBS reading @415 nm” value ([2]; 8 mL PBS 3 minutes, spray coated, PEG-PPO-PEG Mn 14,600) is reported as 0.042. The “Post-Methanol reading @415 nm” value ([2]; 8 mL methanol 5 minutes after PBS elution) was 0.087 and the “drug released during elution time” value ([2]; printed '5-minute elution time', from UV reading and calibration coefficient, PEG-PPO-PEG polymer) was 32.6%.
